Some test systems named below: NCI-H226 lung; HL-60(TB) leukemia; TK-10 renal; UO-31 renal; RXF 393 renal; EKVX NSCLC; SNB-75 CNS; MDA-MB-231 breast; BT-549 breast; NCI/ADR-RES ovarian.
What all share (assay): inhibition of tumour cell growth, NCI panel, 48 h

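Cells were grown in 96-well plates and exposed to each compound for 48 hours at five concentrations; endpoints were interpolated linearly between bracketing concentrations, or set to the highest concentration if not reached. Here, GI50 denotes the concentration required for 50% inhibition of growth. TGI: concentration producing complete growth inhibition.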 Bounds are passed on as bounds.

On to `N#CC(C#N)=C1NC(=O)C(c2ccccc2)C(=O)N1` (stereo unspecified), for which the TGI with NCI-H226 lung, in the assay with HL-60(TB) leukemia, in the assay with TK-10 renal, in the assay on UO-31 renal, in the assay on RXF 393 renal and in the assay on EKVX NSCLC was greater than 100 µM each time. Further, the TGI with SNB-75 CNS was greater than 100 µM.
For `O=C(OCCOCCOC(=O)c1c[nH]cc1-c1ccccc1)c1c[nH]cc1-c1ccccc1`, the TGI in the assay with NCI-H226 lung worked out at 48.9 µM; in the assay on HL-60(TB) leukemia, 55.1 µM; with TK-10 renal, 80.1 µM; in the assay with UO-31 renal, 31.4 µM; in the assay on RXF 393 renal, 35.6 µM; in the assay on EKVX NSCLC, 69.9 µM. In the assay with SNB-75 CNS, this compound yielded a TGI of 36.7 µM.
In the case of `CCOc1ccc(NC(=O)C2=C(C)NC(C)=C(C(=O)Nc3ccc(OCC)cc3)C2c2ccc([N+](=O)[O-])cc2)cc1`, the TGI in the assay on NCI-H226 lung was greater than 100 µM; in the assay on HL-60(TB) leukemia it was 52.7 µM; in the assay on TK-10 renal it was greater than 100 µM; with UO-31 renal it was greater than 100 µM; with RXF 393 renal it was greater than 100 µM; in the assay on EKVX NSCLC it was greater than 100 µM. Moreover, the TGI in the assay on SNB-75 CNS is greater than 100 µM.
In the case of `C[Si](C)(C)/C(Br)=C\CCN1C(=O)CCC1O` (stereo unspecified), the TGI in the assay with NCI-H226 lung, with TK-10 renal, in the assay on UO-31 renal, with RXF 393 renal, in the assay on EKVX NSCLC and in the assay with SNB-75 CNS was greater than 100 µM each time.
As for `CC(CN(CP(=O)([O-])[O-])CP(=O)([O-])[O-])N(CP(=O)([O-])[O-])CP(=O)([O-])[O-].N[C@@H]1CCCC[C@@H]1N.[Pt+2]` (stereo unspecified), the GI50 in the assay on NCI-H226 lung, in the assay on HL-60(TB) leukemia, with TK-10 renal, in the assay with UO-31 renal, in the assay with RXF 393 renal and in the assay on EKVX NSCLC was greater than 100 µM in each case. For the same compound, the GI50 in the assay with SNB-75 CNS is greater than 100 µM. Also, the TGI with NCI-H226 lung, in the assay with HL-60(TB) leukemia, in the assay on TK-10 renal, in the assay with UO-31 renal, in the assay on RXF 393 renal and in the assay with EKVX NSCLC was greater than 100 µM each time. Further, the TGI in the assay on SNB-75 CNS is greater than 100 µM.
Regarding `Cn1cc(C(=O)C2CCCCC2)ccc1=O`, the TGI in the assay with NCI-H226 lung, with HL-60(TB) leukemia, in the assay with TK-10 renal, in the assay on UO-31 renal, with RXF 393 renal and with EKVX NSCLC was greater than 100 µM throughout. In addition, the TGI in the assay on SNB-75 CNS was greater than 100 µM.
`CC(=O)OCCOCNC(=S)N/N=C(\C)c1ccco1`: the TGI in the assay with NCI-H226 lung, in the assay with TK-10 renal, in the assay on UO-31 renal, in the assay with RXF 393 renal, in the assay on EKVX NSCLC and in the assay on SNB-75 CNS was greater than 100 µM in each case.
For `Cc1ccc(S(=O)(=O)N2CCCCC2CCO)cc1` (stereo unspecified), the TGI in the assay with NCI-H226 lung, in the assay with HL-60(TB) leukemia, in the assay with TK-10 renal, with UO-31 renal, in the assay on RXF 393 renal and in the assay with EKVX NSCLC was greater than 100 µM each time. Besides, the TGI with SNB-75 CNS was greater than 100 µM.
For `CCCCOC(=O)N[C@H]1CCc2cc(OC)c(OC)c(OC)c2-c2ccc(SC)c(=O)cc21`, the TGI in the assay with NCI-H226 lung is 0.357 µM; in the assay with HL-60(TB) leukemia it was 0.398 µM; in the assay on TK-10 renal it was 52.4 µM; with UO-31 renal, 49.5 µM; in the assay on RXF 393 renal, 2.07 µM; in the assay with EKVX NSCLC it was greater than 100 µM. The values for the TGI in the assay with MDA-MB-231 breast and in the assay on SNB-75 CNS were 2.8 µM and 2.99 µM, respectively.
As for `C[C@H](NC(=O)OC1C2C=CC(O)C1CC2)c1ccccc1` (stereo partly specified), the TGI in the assay on NCI-H226 lung, in the assay on HL-60(TB) leukemia, with TK-10 renal, in the assay with UO-31 renal, in the assay with RXF 393 renal and in the assay on EKVX NSCLC was greater than 100 µM in each case. The TGI in the assay with SNB-75 CNS was greater than 100 µM.
On to `CC1SC(c2cccs2)N(NC(=O)C(O)c2ccccc2)C1=O` (stereo unspecified), for which the GI50 in the assay with NCI-H226 lung, in the assay with TK-10 renal, in the assay on UO-31 renal, in the assay with BT-549 breast, with RXF 393 renal and in the assay with EKVX NSCLC was greater than 100 µM in each case. For the same compound, the GI50 in the assay on MDA-MB-231 breast and in the assay with SNB-75 CNS was greater than 100 µM each time. For the same compound, the TGI with NCI-H226 lung, in the assay on TK-10 renal, in the assay with UO-31 renal, in the assay with BT-549 breast, in the assay on RXF 393 renal and in the assay on EKVX NSCLC was greater than 100 µM each time. The TGI in the assay with MDA-MB-231 breast and in the assay with SNB-75 CNS was greater than 100 µM throughout.
With `CC(C)(C)NNc1c([N+](=O)[O-])cnn(-c2ccccc2)c1=O`, the TGI was 14.7 µM in the assay with NCI-H226 lung; 5.24 µM with HL-60(TB) leukemia; 36.8 µM with TK-10 renal; 12.8 µM with UO-31 renal; 2.7 µM in the assay with BT-549 breast; 18.1 µM with RXF 393 renal. Further, the TGI in the assay on EKVX NSCLC is 25.6 µM; in the assay on SNB-75 CNS, 23.8 µM.
For the compound `CC(=O)OC1COC(N2C(=O)C(=O)c3cc(Br)c([N+](=O)[O-])cc32)C(OC(C)=O)C1OC(C)=O` (stereo unspecified), the TGI is greater than 100 µM in the assay on NCI-H226 lung; greater than 100 µM in the assay on HL-60(TB) leukemia; greater than 100 µM in the assay on TK-10 renal; 82.3 µM in the assay on RXF 393 renal; greater than 100 µM in the assay with EKVX NSCLC; 81.4 µM in the assay with SNB-75 CNS.
Regarding `CCN(CCCl)CCNc1c2ccccc2nc2ccc(OC)cc12`, the TGI came to 2.42 µM in the assay on NCI-H226 lung; 3.91 µM in the assay on HL-60(TB) leukemia; 5.82 µM in the assay with TK-10 renal; 3.98 µM in the assay on UO-31 renal; 1.97 µM in the assay on RXF 393 renal; 12.8 µM with NCI/ADR-RES ovarian. Moreover, the TGI came to 3.49 µM with EKVX NSCLC and 3.27 µM in the assay on SNB-75 CNS.
Consider `CC(=O)O[C@H]1CC[C@@]2(C)C(=CC[C@@H]3C2CC[C@]2(C)Nc4oncc4CC32)C1` (stereo partly specified), for which the TGI in the assay with NCI-H226 lung was 49.5 µM; with HL-60(TB) leukemia, 31.9 µM; with TK-10 renal, greater than 100 µM; in the assay with UO-31 renal it was 70.7 µM; in the assay on RXF 393 renal, greater than 100 µM; in the assay on EKVX NSCLC, greater than 100 µM. Further, the TGI with SNB-75 CNS is greater than 100 µM.
